Experimental data from patent US20020173538A1, “Method for sensitizing cancer cells to cancer therapies with a mevalonate-reducing compound” (priority 2000, published 2002).
Read-outs that look alike come from different tables or passages of the source. Marks after values point to notes of the source that are not given here.

Legend:
in vitro = settings: human, Cell viability
Source text: (§1) Human hepatoma cell lines Hep G2 and Hep 3 were chosen as the in vitro models of hepatocytes and hepatoma, respectively.

Hep 3B cells [1] = assay: MTT cell viability assay, Hep 3B cells (serum-free DMEM); settings: for viability at 5 µM / viability at 10 µM / viability at 25 µM / viability at 50 µM / IC50 / viability at 1.25 µM: Homo sapiens, Hep3B
Source text: as §1

Hep 3B cells [2] = assay: Cell cycle determination by flow cytometry, Hep 3B; assay type: cell-based, human; settings: cell line not given
Hep G2 cells = assay: MTT cell viability assay, Hep G2 cells (serum-free DMEM); settings: Homo sapiens
Source text: as §1

Hep 3B cells [3] = settings: human, 48 h
Source text: as §1

[4] = MTT cell viability assay, Hep G2 cells (serum-free DMEM); settings: human, Hep G2 cells, Cell viability
Source text: as §1

[5] = 48 h, read-out: IC50 (cell viability), 48 hr
[6] = 72 h, read-out: IC50 (cell viability), 72 hr
[7] = HepG2, 48 h, read-out: IC50 (cell viability), 48 hr
[8] = HepG2, 72 h, read-out: IC50 (cell viability), 72 hr
[9] = no lovastatin 48 hr, then CAO 1.25 μM 48 hr
[10] = no lovastatin 48 hr, then CAO 5 μM 48 hr

## O=C(/C=C/c1ccc(O)c(O)c1)OCCc1ccccc1 [CAPE, caffeic acid phenethyl ester]
In vitro
  viability at 48 h, 5 μM: 70.2 ± 1.7%
  viability at 48 h, 10 μM: 47.7 ± 5.6%
  viability at 48 hr, 5 μM: 71.1 ± 1.8%
  viability at 48 hr, 10 μM: 47.4 ± 3%
  viability at 48 hr, 25 μM: 42.6 ± 1.3%
  viability at 48 hr, 50 μM: 7.5 ± 0.6%
  viability at 72 h, 5 μM: 36.8 ± 6.7%
  viability at 72 h, 10 μM: 20 ± 4%
  viability at 72 h, 25 μM: 13.2 ± 1.1%
  viability at 72 hr, 5 μM: 42.3 ± 2.5%
  viability at 72 hr, 10 μM: 21.2 ± 5%
  viability at 72 hr, 25 μM: 12.5 ± 3%
  viability at 72 hr, 50 μM: 1.9 ± 1.8%
Hep 3B cells [1]; CAPE 5 μM alone, 72 hr, Table 23
  Ratio, inhibition (%) Hep 3B/inhibition (%) Hep G2: 0.4**
Hep 3B cells [1]; CAPE 5 μM, 48 hr
  Ratio, inhibition (%) Hep 3B/inhibition (%) Hep G2: 0.4***
Hep 3B cells [1]; CAPE 5 μM, 72 hr
  Ratio, inhibition (%) Hep 3B/inhibition (%) Hep G2: 0.5***
Hep 3B cells [1]; CAPE 10 μM alone, 72 hr, Table 23
  Ratio, inhibition (%) Hep 3B/inhibition (%) Hep G2: 0.6***
Hep 3B cells [1]; CAPE 10 μM, 48 hr
  Ratio, inhibition (%) Hep 3B/inhibition (%) Hep G2: 0.5***
Hep 3B cells [1]; CAPE 10 μM, 72 hr
  Ratio, inhibition (%) Hep 3B/inhibition (%) Hep G2: 0.7**
Hep 3B cells [1]; CAPE 25 μM alone, 72 hr, Table 23
  Ratio, inhibition (%) Hep 3B/inhibition (%) Hep G2: 0.9
Hep 3B cells [1]; CAPE 25 μM, 48 hr
  Ratio, inhibition (%) Hep 3B/inhibition (%) Hep G2: 1.1
Hep 3B cells [1]; CAPE 25 μM, 72 hr
  Ratio, inhibition (%) Hep 3B/inhibition (%) Hep G2: 1.0
Hep 3B cells [1]; CAPE 50 μM, 48 hr
  Ratio, inhibition (%) Hep 3B/inhibition (%) Hep G2: 0.9**
Hep 3B cells [1]; CAPE 50 μM, 72 hr
  Ratio, inhibition (%) Hep 3B/inhibition (%) Hep G2: 1.0
Hep 3B cells [1]; 48 h, read-out: Cell viability, CAPE 5 μM, 48 hr
  viability at 5 µM: 87.1 ± 1.8%
Hep 3B cells [1]; 48 h, read-out: Cell viability, CAPE 10 μM, 48 hr
  viability at 10 µM: 73.2 ± 1.2%
Hep 3B cells [1]; 48 h, read-out: Cell viability, CAPE 25 μM, 48 hr
  viability at 25 µM: 38.2 ± 4.7%
Hep 3B cells [1]; 48 h, read-out: Cell viability, CAPE 50 μM, 48 hr
  viability at 50 µM: 20.5 ± 4.6%
Hep 3B cells [1]; [5]
  IC50: 19.9 µM
Hep 3B cells [1]; 72 h, read-out: Cell viability, CAPE 5 μM alone, 72 hr, Table 23
  viability at 5 µM: 74.2 ± 6.8%
Hep 3B cells [1]; 72 h, read-out: Cell viability, CAPE 5 μM, 72 hr
  viability at 5 µM: 70.8 ± 2.6%
Hep 3B cells [1]; 72 h, read-out: Cell viability, CAPE 10 μM alone, 72 hr, Table 23
  viability at 10 µM: 53.5 ± 5%
Hep 3B cells [1]; 72 h, read-out: Cell viability, CAPE 10 μM, 72 hr
  viability at 10 µM: 47.6 ± 1.9%
Hep 3B cells [1]; 72 h, read-out: Cell viability, CAPE 25 μM alone, 72 hr, Table 23
  viability at 25 µM: 22.3 ± 5.7%
Hep 3B cells [1]; 72 h, read-out: Cell viability, CAPE 25 μM, 72 hr
  viability at 25 µM: 12.5 ± 4.8%
Hep 3B cells [1]; 72 h, read-out: Cell viability, CAPE 50 μM, 72 hr
  viability at 50 µM: 0%
Hep 3B cells [1]; [6]
  IC50: 9.5 µM
Hep 3B cells [1]; no lovastatin 48 hr, then CAPE 5 μM 48 hr
  Ratio, inhibition (%) Hep 3B/inhibition (%) Hep G2: 0.4***
Hep 3B cells [1]; no lovastatin 48 hr, then CAPE 10 μM 48 hr
  Ratio, inhibition (%) Hep 3B/inhibition (%) Hep G2: 0.4***
Hep 3B cells [2]
  cell cycle arrest stage: G1 arrest
Hep G2 cells; [7]
  IC50: 9.5 µM
Hep G2 cells; [8]
  IC50: 4.5 µM
Hep 3B cells [3]; 5 μM
  Cell viability: 88.8 ± 1.6^b % of control
Hep 3B cells [3]; 10 μM
  Cell viability: 77.4 ± 1.8^c % of control

## CCCCCCCCOC(=O)/C=C/c1ccc(O)c(O)c1 [CAO, caffeic acid 1-octyl ester]
Hep 3B cells [1]; CAO 1.25 μM alone, 96 hr
  Ratio, inhibition (%) Hep 3B/inhibition (%) Hep G2: 1.3*
Hep 3B cells [1]; CAO 5 μM alone, 96 hr
  Ratio, inhibition (%) Hep 3B/inhibition (%) Hep G2: 0.9
Hep 3B cells [1]; CAO 5 μM, 48 hr
  Ratio, inhibition (%) Hep 3B/inhibition (%) Hep G2: 0.9**
Hep 3B cells [1]; CAO 5 μM, 72 hr
  Ratio, inhibition (%) Hep 3B/inhibition (%) Hep G2: 1.0
Hep 3B cells [1]; CAO 10 μM, 48 hr
  Ratio, inhibition (%) Hep 3B/inhibition (%) Hep G2: 0.8
Hep 3B cells [1]; CAO 10 μM, 72 hr
  Ratio, inhibition (%) Hep 3B/inhibition (%) Hep G2: 1.0
Hep 3B cells [1]; CAO 25 μM, 48 hr
  Ratio, inhibition (%) Hep 3B/inhibition (%) Hep G2: 1.0*
Hep 3B cells [1]; CAO 25 μM, 72 hr
  Ratio, inhibition (%) Hep 3B/inhibition (%) Hep G2: 1.0
Hep 3B cells [1]; 48 h, read-out: Cell viability, CAO 1.25 μM, 48 hr
  viability at 1.25 µM: 97.8 ± 4.1%
Hep 3B cells [1]; 48 h, read-out: Cell viability, CAO 5 μM, 48 hr
  viability at 5 µM: 52 ± 1.8%
Hep 3B cells [1]; 48 h, read-out: Cell viability, CAO 10 μM, 48 hr
  viability at 10 µM: 21.7 ± 3.9%
Hep 3B cells [1]; 48 h, read-out: Cell viability, CAO 25 μM, 48 hr
  viability at 25 µM: 3.9 ± 1.3%
Hep 3B cells [1]; [5]
  IC50: 5.3 µM
Hep 3B cells [1]; 72 h, read-out: Cell viability, CAO 1.25 μM, 72 hr
  viability at 1.25 µM: 89.8 ± 0.6%
Hep 3B cells [1]; 72 h, read-out: Cell viability, CAO 5 μM, 72 hr
  viability at 5 µM: 16.3 ± 2.6%
Hep 3B cells [1]; 72 h, read-out: Cell viability, CAO 10 μM, 72 hr
  viability at 10 µM: 2.4 ± 1.6%
Hep 3B cells [1]; 72 h, read-out: Cell viability, CAO 25 μM, 72 hr
  viability at 25 µM: 0%
Hep 3B cells [1]; [6]
  IC50: 2.9 µM
Hep 3B cells [1]; 96 h, read-out: Cell viability, CAO 1.25 μM alone, 96 hr
  viability at 1.25 µM: 66.9 ± 2.9%
Hep 3B cells [1]; 96 h, read-out: Cell viability, CAO 5 μM alone, 96 hr
  viability at 5 µM: 20.1 ± 5.7%
Hep 3B cells [1]; [9]
  Cell viability: 83.0 ± 4.4^b % of control
  Ratio, inhibition (%) Hep 3B/inhibition (%) Hep G2: 17.0***
Hep 3B cells [1]; [10]
  Cell viability: 53.2 ± 4.5^d % of control
  Ratio, inhibition (%) Hep 3B/inhibition (%) Hep G2: 0.8*
[4]; CAO 1.25 μM alone, 96 hr
  viability at 96 h, 1.25 μM: 74 ± 2.9%
[4]; CAO 1.25 μM, 48 hr
  viability at 48 h, 1.25 μM: 104 ± 4.6%
[4]; CAO 1.25 μM, 72 hr
  viability at 72 h, 1.25 μM: 102.7 ± 0.4%
[4]; CAO 5 μM alone, 96 hr
  viability at 96 h, 5 μM: 16.2 ± 1.2%
[4]; CAO 5 μM, 48 hr
  viability at 48 h, 5 μM: 44.2 ± 6.6%
[4]; CAO 5 μM, 72 hr
  viability at 72 h, 5 μM: 18.1 ± 2.1%
[4]; CAO 10 μM, 48 hr
  viability at 48 h, 10 μM: 5.8 ± 3.9%
[4]; CAO 10 μM, 72 hr
  viability at 72 h, 10 μM: 0%
[4]; CAO 25 μM, 48 hr
  viability at 48 h, 25 μM: 0%
[4]; CAO 25 μM, 72 hr
  viability at 72 h, 25 μM: 0%
[4]; [9]
  viability at 48 h, 1.25 μM: 99 ± 4.1%
[4]; [10]
  viability at 48 h, 5 μM: 42.8 ± 3%
Hep G2 cells; [7]
  IC50: 4 µM
Hep G2 cells; [8]
  IC50: 2.7 µM
